{"source": "patent US6774143B1", "about": "“Method for treating cells resistant to antineoplastic agents” (Novartis AG, priority 2003, dated 2004)", "key": {"1A9 cells": {"test_system": "1A9 cells", "assay": "In vitro cytotoxicity assay (MTT)", "type": "cell-based", "details": "Homo sapiens, 1A9, 72 h, 1A9 cells, 72 hours", "protocol": "(§1) 1A9 and 1A9PTX22 cells are plated in 96-well plates at 5×10^4 cells/well, plced in a tissue culture incubator and allowed to attach overnight. The next morning, the number of viable cells in the “time 0” plate (3 wells for each cell line) is determined using an MTT assay (Alley M C, et al., Cancer Res. 1988, 48:589-601).\n(§2) At the same time drugs are added in serial, 10-fold dilutions, to the experimental plates. Corresponding vehicles are added to control plates. Experimental and control plates are then incubated in the tissue culture incubator for 72 hours. After the incubation the number of viable cells is determined in each plate using the MTT assay. IC50s (defined as a concentration of a given compound causing 50% inhibition of cell growth) are determined by comparing cell growth in the drug-treated plate (T−T0) to the cell growth in the corresponding control plate (C−T0). For each experiment results are calculated using average numbers from two sets of plates.\n(§3) Discodermolide is isolated from the sponge Discodermia dissoluta using the method of Gunasekera SP (supra). Multiple batches of compound of similar purity (all>95% pure, as determined by mass spectrometry, and nuclear magnetic resonance analysis) are used throughout the various studies. For the in vitro cytotoxicity assays all compounds are dissolved in DMSO and are added to the plates with cells to obtain desired concentrations. […] Paclitaxel is purchased from Sigma/Aldrich, (St. Louis, Mo.). For the in vivo hollow fiber assay, solid discodermolide is dissolved in pure ethanol to create a stock solution which is diluted just before dosing with Cremophor EL and D5W to a final concentration of 16.7% Cremophor EL, 8.3% ethanol and 75% D5W. The compound is administered to mice as a single, 15 mg/kg iv injection. Positive control animals receive clinical formulations of paclitaxel (TAXOL) diluted 4-fold with D5W (12.5% Cremophor El, 12.5% ethanol and 75% D5W final concentrations) and administered iv, at 15 mg/kg, once daily for five consecutive days. Vehicle controls are administered according to the corresponding drug schedules."}, "[1]": {"test_system": "1A9PTX22 cells (β-tubulin mutation)", "assay": "In vitro cytotoxicity assay (MTT)", "type": "cell-based, human", "protocol": "as §1, §2, §3"}, "Bcl-xL": {"test_system": "Bcl-xL", "assay": "Western blot, Bcl-xL phosphorylation", "type": "cell-based, human", "details": "24 hour treatment", "protocol": "Cells are plated at a density of 1.5×10^6 cells per 100 mm plate. The next day cells are treated with vehicle control (0.1% DMSO) or test compound for 24 h. Cells are harvested by washing monolayers twice with PBS, then lysing with 300 ul of lysis buffer[20 mM Tris (pH 8.0), […], 100 mM NaCl, 0.5% NP40, 0.0125% DOC, 2.5% glycerol, 1 mM vanadate, 25 mM sodium fluoride and protease inhibitor cocktail (1:500 dilution, Sigma)]. Lysates were spun at 12,000× g and the supernatant transferred to a new tube. Protein concentration of the lysates is determined using BCA protein assay Reagent (Pierce). Samples (75 μg) are resolved by SDS-PAGE on a 7.5% or 14% tris-glycine gel for Raf-1 and Bcl-xL, respectively, and transferred to nitrocellulose. Immunodetection is performed as described by Amersham Vistra Fluorescence Western blotting Kit directions with the following modifications: the membrane is blocked with 5% milk (Carnation Non-Fat Dry Milk) in buffer containing 20 mM Tris-HCl (pH=7.4), 100 mM NaCl, and 0.2% Tween 20 (TBST) overnight and is subsequently incubated for 2 h with primary antibody (Santa Cruz C-12 for Raf-1 and Santa Cruz H-62 for Bcl-xL), followed by fluorescein-linked anti-rabbit Ig in 5% milk and anti-fluorescein alkaline phosphatase conjugate in TBST at 1:500 and 1:2000 dilutions, respectively. A Storm 860 (Molecular Dynamics) is used to detect fluorescent product according to the manufacturer's instructions."}, "PTX-22 cells": {"test_system": "PTX-22 cells", "assay": "Antiproliferative assay (MTS)", "type": "cell-based, human", "protocol": "A549, a human non-small cell lung carcinoma and MDA-MB-435, a human breast carcinoma, used in this study are obtained from the American Type Culture Collection (ATCC, Rockville, Md., USA). MDA-MB-435 cells are maintained in MEM containing 10% FBS, 1% sodium pyruvate, 1% MEM non-essential amino acids, and 15 mM HEPES (pH=7.4). A549 cells are maintained in RPMI 1640 containing 10% FBS. 1A9, a single-cell clone of the human ovarian carcinoma cell line A2780 and PTX22, the paclitaxel-resistant subline, used in this stdy are obtained from M. Wartman (Novartis Pharmauticals). 1A9 cells and PTX22 cells are maintained in RPMI 1640 supplemented with 10% FBS. PTX22 maintenance media also contained 15 ng/mL paclitaxel and 5 μg/mL verapamil. Drug is removed from the media for 5-7 days before use in an experiment. All maintenance media contained 100 units/mL penicillin and 100 μg/mL streptomycin.\nCell lines are trypsinized and counted using a Coulter counter. Cells were plated in 96 well plates (190 μL/well) at the following densities: 1,000 cells/well for A549 and 3,000 cells/well for MDA-MB-435. The number of cells plated results in cell densities of 75-90% confluence by the time of harvest. Plates are seeded on day 0. On day 1 test compounds are added to triplicate wells in a final volume of 10 μL media. Initial cell density for each cell line is measured on day 1 by adding 10 μL MTS mixture (see below), incubating for 4 h and recording absorbance at 490 nm (A490). Two or three days after test compound addition, 10 μL/well of MTS mixture is added to the test plates and A490 was read 4 h later. A490 values for wells containing cells are corrected for media absorbance, then normalized to initial density readings to determine percent net growth. Percent net growth is calculated as (A490+drug−A490 initial)/(A490—drug—A490 initial). Graphs of percent net growth as a function of compound concentration are used to calculate concentrations resulting in 50% growth inhibition (IC50). MTS mixture is prepared fresh on day of addition to cell plates at a ratio of 10 μL of a 0.92 mg/mL solution of phenazine methosulfate (PMS) to 190 μL of a 2 mg/mL solution of MTS (3-(4,5-dimethylthiazol-2-yl)-5-(3-carboxymethoxyphenyl)-2-(4-sulfophenyl)-2H-tetrazolium, inner salt). PMS and MTS solutions are prepared in buffered saline containing 0.2 g/L KCl, 8.0 g/L NaCl, 0.2 g/L KH2PO4, 1.15 g/L Na2HPO4, 133 mg/L CaCl2.2H2O, 100 mg/L MgCl2.6H2O, (pH=7.35) and stored as foil-wrapped aliquots at −20° C. Test compounds are prepared as stock solutions in DMSO. Test compound dilutions are made in 2% DMSO/cell maintenance media and diluted into assay plates to give 0.1% DMSO final in all wells."}}, "note": "Read-outs that look alike come from different tables or passages of the source.", "data": [{"smiles": "CC(=O)O[C@H]1C(=O)[C@@]2(C)[C@H]([C@H](OC(=O)c3ccccc3)[C@]3(O)C[C@H](OC(=O)[C@H](O)[C@@H](NC(=O)c4ccccc4)c4ccccc4)C(C)=C1C3(C)C)[C@]1(OC(C)=O)CO[C@@H]1C[C@@H]2O", "note": "[paclitaxel, reference compound]", "values": [{"measurement": "IC50", "setting": "1A9 cells; first experiment, read-out: IC50", "result": 0.8, "unit": "ng/mL"}, {"measurement": "IC50", "setting": "1A9 cells; second experiment, read-out: IC50", "result": 0.4, "unit": "ng/mL"}, {"measurement": "IC50", "setting": "[1]; Homo sapiens, 1A9/ptx-22, 72 h, 1A9PTX22 cells, 72 hours, first experiment, read-out: IC50", "result": 15, "unit": "ng/mL"}, {"measurement": "IC50", "setting": "[1]; Homo sapiens, 1A9/ptx-22, 72 h, 1A9PTX22 cells, 72 hours, second experiment, read-out: IC50", "result": 9, "unit": "ng/mL"}, {"measurement": "fold resistance of 1A9PTX22 versus parental 1A9", "setting": "[1]; from IC50s of the two in vitro experiments", "result": 20, "unit": "fold"}, {"measurement": "Bcl-xL phosphorylation", "setting": "Bcl-xL; A549 cells", "result": "phosphorylated"}, {"measurement": "Bcl-xL phosphorylation", "setting": "Bcl-xL; MDA-MB-435 cells", "result": "phosphorylated"}, {"measurement": "IC50", "setting": "PTX-22 cells; Homo sapiens, 72 h, PTX-22 cells, single value given, read-out: 72 hour IC50", "result": 80, "unit": "nM"}, {"measurement": "fold less sensitive, PTX-22 versus 1A9", "setting": "PTX-22 cells; from the 72 hour IC50 values", "result": 13, "unit": "fold"}]}, {"smiles": "C=C/C=C\\[C@H](C)[C@H](OC(N)=O)[C@@H](C)[C@H](O)[C@@H](C)C/C(C)=C\\[C@H](C)[C@@H](O)[C@@H](C)/C=C\\[C@@H](O)C[C@@H]1OC(=O)[C@H](C)[C@@H](O)[C@H]1C", "note": "[discodermolide, (+)-Discodermolide]", "values": [{"measurement": "IC50", "setting": "1A9 cells; first experiment", "result": 6, "unit": "ng/mL"}, {"measurement": "IC50", "setting": "1A9 cells; second experiment", "result": 3, "unit": "ng/mL"}, {"measurement": "IC50", "setting": "[1]; 1A9PTX22 cells, 72 hours, second experiment", "result": 3, "unit": "ng/mL"}, {"measurement": "IC50", "setting": "[1]; Homo sapiens, 1A9/ptx-22, 72 h", "result": 3, "unit": "ng/mL"}, {"measurement": "Bcl-xL phosphorylation", "setting": "Bcl-xL; A549 cells", "result": "phosphorylated"}, {"measurement": "Bcl-xL phosphorylation", "setting": "Bcl-xL; MDA-MB-435 cells", "result": "phosphorylated"}, {"measurement": "IC50", "setting": "PTX-22 cells; Homo sapiens, 72 h, read-out: 72 hour IC50, PTX-22 cells, single value given", "result": 30, "unit": "nM"}, {"measurement": "IC50", "setting": "PTX-22 cells; Homo sapiens, 72 h, read-out: IC50 cell proliferation, PTX-22 cells, 72 h exposure, two independent experiments", "result": 23, "unit": "nM"}, {"measurement": "IC50", "setting": "PTX-22 cells; read-out: IC50 cell proliferation, PTX-22 cells, 72 h exposure, two independent experiments", "result": 37, "unit": "nM"}]}]}
